In US11771703B2, “Targeted epigenetic therapy against distal regulatory element of TGFβ2 expression” (The Johns Hopkins University, priority 2017, dated 2023):
“Also recorded” adds a separate entry of the source. Numbered stars: 1 amine (or outer) side, 2 acyl side, 3 side chain; on linkers, the order of the positions; unused ones are H or OH. Bridge positions count the residues as written; N and C are the ends. Square brackets hold non-standard residues; d marks the D form. Peptide text beside a SMILES is read from it. I, II: the chains in the order shown. Actinocin(9to1) = Cc1c2oc3c(C)ccc(C(=O)[*:1])c3nc-2c(C(=O)[*:2])c(N)c1=O; NMeV = CN[C@H](C(=O)O)C(C)C; Sar = CNCC(=O)O

What was measured:
[1] = system: TGFβ2 mRNA expression in SSc fibroblasts; test: TGFβ2 mRNA expression in primary dermal control and SSc fibroblasts, RT-qPCR; assay type: cell-based, human; conditions: for TGFβ2 mRNA expression in SSc fibroblasts after drug removal: 72 hours treatment, then drug removal; for TGFβ2 mRNA expression in SSc fibroblasts under treatment: SSc fibroblasts vs controls, serum-deprived, SGC-CBP30 72 hours, actinomycin D 12 hours; for TGFβ2 mRNA expression upon stimulation with cytokine/ligand: exogenous stimulation of fibroblasts
Method: (§1) To test this hypothesis, it was first validated whether primary dermal SSc fibroblast lines established from dermal biopsies maintained stable gene expression differences at baseline. Six dermal fibroblasts lines from SSc patients and five dermal fibroblast lines from healthy controls were cultured in serum-deprived conditions (DMEM+1% FCS) for 48 hours, followed by mRNA isolation. RNAseq analysis indicated significant transcriptomic differences (FDR<0.05) with heightened expression of extracellular matrix genes (P<1E-9) in SSc fibroblasts (FIG. 1A). By RT-qPCR, elevated expression of pro-fibrotic genes, such as COL1A1 and SERPINH1 (FIG. 1B), were independently validated. TGFβ expression, the dominant pro-fibrotic cytokine, was also assessed. […] This indicated transcriptional upregulation of TGFβ2 in SSc fibroblasts.
Since heightened TGFβ2 signaling drives collagen expression in SSc cells, the possible mechanisms of heightened TGFβ2 ligand expression in SSc fibroblasts, was investigated. First, it was determined if SSc fibroblasts were actively transcribing TGFβ2 mRNA by treating SSc or control fibroblasts with the transcriptional inhibitor actinomycin D for 12 hours, followed by mRNA isolation and RT-qPCR.
Second, it was determined if autocrine TGFβ2 signaling drives the steady-state differences in TGFβ2 mRNA expression in SSc fibroblasts. Cells were treated with isotype control or αTGFβ2ab in the presence or absence of saturating levels of exogenous TGFβ2 ligand (10 ng/mL), followed by mRNA isolation and RT-qPCR.
Third, pharmacological acetyltransferase inhibitors were used to support the role of enhancers in TGFβ2 expression and to identify therapeutic strategies for SSc. Bromodomain inhibitor SGC-CBP30 specifically suppresses the acetyltransferase activity of P300. […] This indicated some form of epigenetic memory that re-activates the TGFβ2 enhancer in SSc fibroblasts.

[2] = system: collagen expression in SSc fibroblasts; test: Collagen / fibrotic synthetic repertoire (FSR) expression in SSc fibroblasts, RT-qPCR; assay type: cell-based, human
Method: as §1
This provided evidence that autocrine TGFβ2 signaling drives high collagen expression in SSc. To test this, the activity of ALK5, a TGFβ receptor kinase required by all TGFβ isoforms, was inhibited. ALK5 inhibition normalized collagen expression in SSc fibroblasts (FIG. 1E, P<0.05).

[3] = system: TGFβ2 protein; test: TGFβ2 protein expression in SSc fibroblasts (western blot); assay type: cell-based, human
Method: FIG. 1A is a heatmap. Primary control and SSc fibroblasts were cultured ex vivo under serum deprived conditions (DMEM+1% FCS). Unsupervised hierarchical clustering was performed on genes with significant mRNA expression differences (FDR<0.05) assessed by RNA-seq on primary control and SSc fibroblasts. Top ranked GO term result for each gene cluster is indicated on the left of the heatmap. FIG. 1B are plots showing mRNA transcript levels measured by RT-qPCR. FIG. 1C: Transcript differences were correlated with protein expression by western blot under same culture conditions. FIG. 1D: Effects of TGFβ2 ligand stimulation on collagen expression was assessed in SSc fibroblasts. FIG. 1E: Effects of autocrine TGFβ2 signaling on mRNA expression of collagen was assessed through treatment of control and SSc fibroblasts with anti-TGFβ2 neutralizing antibody, followed by RT-qPCR. FIG. 1F: Effects of autocrine TGFβ2 stimulation on mRNA expression of TGFβ2 was assessed through treatment of control and SSc fibroblasts with combinations of anti-TGFBβ2 neutralizing antibody and exogenous TGFβ2 ligand ([…]). […]

[4] = system: TGFB2 enhancer (Enhancer 4514); test: ChIP-qPCR occupancy (P300, BRD4, H3K27ac) at the TGFB2 enhancer; assay type: cell-based, human
Description: (§2) The negative enantiomer of JQ1 was used as a negative control. […] In FIGS. 4G and 4H, BRD4 inhibition with JQ1 normalizes TGFβ2 protein and collagen mRNA expression in SSc fibroblasts. In FIGS. 4I, 4J and 4K, JQ1 treatment normalizes chromatin accessibility, H3K27ac and BRD4 occupancy at the TGFB2 enhancer in SSc fibroblasts. […] FIG. 4M: Heatmap of unsupervised hierarchical clustering of differentially expressed genes between vehicle or JQ1-treated control or SSc fibroblasts by RNA-seq (N=2). Rows represent differentially expressed genes between vehicle-treated control and SSc fibroblasts (FDR<0.05). Differences in expression of these genes are mitigated in SSc fibroblasts upon JQ1 treatment. […] Blue and red bars represent control and SSc fibroblasts, respectively. Ncontrol=5 and NSSc=6. Lower and upper margins of each bar indicate 25th and 75th percentiles, respectively; the internal line indicates the mean and whiskers indicate the range. Black points represent individual samples. All mRNA levels were normalized to GAPDH mRNA levels, respectively. All experiments other than RNA-seq and ATAC-qPCR were repeated at least twice with similar results.
Detecting activation status of TGFβ2 enhancer: To determine the activation status of the enhancer for TGFβ2 expression, chromatin immunoprecipitation was performed, followed by quantitative PCR (CHIP-qPCR), using primers that were uniquely designed based on ATAC-seq data for primary fibroblasts and published ENCODE data. The current method of detecting the activation status of TGFβ2 enhancer was implemented on primary human fibroblast cell lines established from dermal biopsies of normal controls or Scleroderma patients. However, the current method is applicable to adherent or non-adherent cells from tissue or blood of subjects (e.g., human patients).
To determine if Enhancer 4514 was biologically functional, a three-pronged approach was taken. First, active and functional enhancers are strongly associated with H3K27ac histone modifications with heightened occupancy of P300 (histone acetyltransferase) (Cato E et al. (2013) Cell Molecular Cell Reviews. 49:825-837). Thus, chromatin immunoprecipitation was used followed by qPCR (ChIP-qPCR) to determine the level of H3K27ac and P300 at Enhancer 4514 in SSc and control fibroblasts under baseline serum-deprived conditions. […] Furthermore, moderately higher levels of phosphorylated SMAD2 occupancy was found at enhancer 4514 in SSc.

[5] = system: TGFB2 enhancer (Enhancer 4514); test: Chromatin accessibility at the TGFB2 enhancer (ATAC); assay type: cell-based, human; conditions: SSc fibroblasts under treatment
Description: as §2
To test this hypothesis, an RNA-seq and Assay for Transposase-Accessible Chromatin Sequencing (ATAC-seq) were performed on three primary control fibroblast lines and three primary SSc fibroblast lines^7. […]

[6] = system: SSc fibroblasts; test: RNA-seq transcriptome of vehicle or JQ1-treated control or SSc fibroblasts; assay type: cell-based, human
Description: as §2, with “All experiments other than RNA-seq and ATAC-qPCR were repeated at least twice with similar results.” left out
To test this hypothesis, it was first validated whether primary dermal SSc fibroblast lines established from dermal biopsies maintained stable gene expression differences at baseline. […] TGFβ expression, the dominant pro-fibrotic cytokine, was also assessed. […]

[7] = system: TGFB2 enhancer; conditions: Chem-seq database GSE44098, GSE43743; cited from earlier work
[8] = system: TGFβ1 mRNA expression; test: TGFβ1 mRNA expression in fibroblasts, RT-qPCR; assay type: cell-based, human; conditions: fibroblasts under treatment
[9] = system: TGFβ3 mRNA expression; test: TGFβ3 mRNA expression in fibroblasts, RT-qPCR; assay type: cell-based, human; conditions: fibroblasts under treatment
[10] = system: Scleroderma cells; test: Cell toxicity of CBP/P300 inhibitor treatment
[11] = SSc fibroblasts under treatment
[12] = SSc fibroblasts, 72 hours treatment then removal

CC(C)(C)c1ccc(S(=O)(=O)/C=C/C#N)cc1 [BAY 11-7085]
TGFβ2 mRNA expression in SSc fibroblasts after drug removal [1]: sustained normalization | TGFβ2 mRNA expression in SSc fibroblasts after drug removal ([1]; listed as BAY 11-70585): sustained repression | TGFβ2 mRNA expression in SSc fibroblasts under treatment [1]: robustly suppressed | TNFα-induced TGFB2 mRNA expression under co-treatment ([1]; co-treatment with TNFα): prevents TGFB2 induction

Cc1sc2c(c1C)C(c1ccc(Cl)cc1)=N[C@@H](CC(=O)OC(C)(C)C)c1nnc(C)n1-2 [JQ1]
TGFβ2 mRNA expression in SSc fibroblasts after drug removal [1]: sustained repression; also recorded: sustained suppression; also recorded: maintained even after drug removal | TGFβ2 mRNA expression in SSc fibroblasts under treatment [1]: rapidly normalized; also recorded: decreased | TGFβ2 mRNA induction by exogenous TGFβ2 ligand under co-treatment ([1]; co-stimulation with TGFβ2 ligand (10 ng/mL)): failed to induce TGFβ2 mRNA expression | TGFβ2 mRNA expression in SSc fibroblasts after a single 48 hr regiment ([1]; single 48 hr regiment): permanently normalizes | fibrotic synthetic repertoire (FSR) in SSc cells ([2]; e.g. COL1A1, SERPINH1): normalization | collagen expression in SSc fibroblasts ([2]; mRNA, RT-qPCR): rapidly normalized; also recorded: normalizes | TGFβ2 protein levels in SSc fibroblasts [3]: rapidly normalized; also recorded: normalizes | BRD4 occupancy at the TGFB2 enhancer [4, 11]: complete normalization; also recorded: normalizes | H3K27ac at the TGFB2 enhancer [4, 11]: complete normalization; also recorded: normalizes | BRD4 occupancy at the TGFB2 enhancer after drug removal [4, 12]: continued normalization; also recorded: sustained normalization | H3K27ac at the TGFB2 enhancer after drug removal [4, 12]: continued normalization; also recorded: sustained normalization | P300 occupancy at the TGFB2 enhancer after drug removal [4, 12]: continued normalization; also recorded: sustained normalization | chromatin accessibility at the TGFB2 enhancer [5]: complete normalization; also recorded: normalizes | transcriptomic differences between control and SSc fibroblasts (RNA-seq) ([6]; N=2): significantly mitigated transcriptomic differences | clustering in principal component analysis of RNA-seq ([6]; PC1, 67% of total variance): cluster together with control samples in PC1; also recorded: cluster with control fibroblasts | binding at the TGFB2 enhancer (Chem-seq) [7]: specifically bound to the TGFB2 enhancer; also recorded: specific binding

COc1ccc(CCc2nc3cc(-c4c(C)noc4C)ccc3n2C[C@H](C)N2CCOCC2)cc1Cl [SGC-CBP30]
TGFβ2 mRNA expression in SSc fibroblasts after drug removal [1]: rebounded to steady-state levels | TGFβ2 mRNA expression in SSc fibroblasts under treatment [1]: normalized TGFβ2 expression in SSc fibroblasts to levels comparable to that of controls; also recorded: suppressed; also recorded: decrease TGFβ2 expression in Scleroderma cells to levels comparable to that of control | TGFβ2 mRNA expression in SSc fibroblasts under treatment ([1]; listed as SGC-CBP300): specifically decrease | TGFβ2 mRNA level in SSc cells compared to control after drug removal ([1]; after 72 hours of treatment and drug removal): 3 fold | P300 occupancy of the TGFB2 enhancer under treatment ([4]; SSc fibroblasts, 72 hours): suppressed | P300 occupancy at the TGFB2 enhancer after drug removal [4, 12]: re-establish high P300 occupancy; also recorded: rebounded to steady-state levels | TGFβ1 mRNA expression [8]: not TGFβ1 or TGFβ3 | TGFβ3 mRNA expression [9]: not TGFβ1 or TGFβ3 | cell toxicity [10]: minimal cell toxicity

Cc1c2oc3c(C)ccc(C(=O)N[C@@H]4C(=O)N[C@H](C(C)C)C(=O)N5CCC[C@H]5C(=O)N(C)CC(=O)N(C)[C@@H](C(C)C)C(=O)O[C@@H]4C)c3nc-2c(C(=O)N[C@@H]2C(=O)N[C@H](C(C)C)C(=O)N3CCC[C@H]3C(=O)N(C)CC(=O)N(C)[C@@H](C(C)C)C(=O)O[C@@H]2C)c(N)c1=O [actinomycin D] (I: T[dV]P[Sar][NMeV] / II: T[dV]P[Sar][NMeV]; ester I:1-I:C, II:1-II:C; linker I:N-II:N via Actinocin(9to1))
TGFβ2 mRNA expression in SSc fibroblasts under treatment [1]: completely normalized | TGFβ1 mRNA expression [8]: did not significantly alter | TGFβ3 mRNA expression [9]: did not significantly alter

TNFα
TGFβ2 mRNA expression upon stimulation with cytokine/ligand [1]: increased TGFβ2 expression; also recorded: induces TGFB2 mRNA expression

B1: TGFβ2 ligand: exogenous TGFβ2 ligand (10 ng/mL) (protein, UniProt P61812 303-414, looked up)
Transforming growth factor …: ALDAAYCFRNVQDNCCLRPLYIDFKRDLGWKWIHEPKGYNANFCAGACPYLWSSDTQHSRVLSLYNTINPEASASPCCVSQDLEPLTILYYIGKTPKIEQLSNMIVKSCKCS
TGFβ2 mRNA expression upon stimulation with cytokine/ligand [1]: pronounced further increase in TGFβ2 mRNA
